Where two headings read alike, the source gives them in different places.

One may read the IC50 as the point on the concentration scale where inhibition reaches its midpoint. Low readings indicate greater potency in that assay, high ones weaker potency in that assay. The term MTD denotes the highest dose tested that stayed within the study's limit of toxicity.

For data set [1], the system named is RPMI8226 (Human myeloma). Nature of the data set: MTT assay, IC50 in tumor cell lines. In kind it is cell-based. The note with it: RPMI-8226, RPMI8226, 72 hr. How it is done: The effect of Astarabine® on different cell lines was evaluated. Briefly, various cell lines were obtained from ATCC or ECACC. Hematological cells were grown in RPMI medium containing 10-20% FBS and 1% glutamine. Solid tumor cells were grown in DMEM medium containing 10-20% FBS and 1% glutamine. Cells were seeded into 96-well plates, 50,000 cells/ml, 0.2 ml per well. […] The study was conducted in triplicates, PBS was used as control. Plates were incubated for 72 hr at 37° C., 5% CO2. At the end of the exposure period, a MTT assay using the MTT reagent [3-(4,5-dimethylthiazol-2-yl)-2,5-diphenyltetrazolium bromide] was performed. MTT was added to each well at a concentration of 5 mg/ml in a volume of 0.02 ml. Plates were incubated at 37° C. for 3 h. The plates were centrifuged at 3500 rpm for 5 minutes and the supernatant was aspired. The pellets which contained MTT crystals were each dissolved in 0.2 ml DMSO. Absorbance was determined using ELISA reader at a wavelength of 570 nm.
(Formazan colour is commonly taken as a measure of viable cells.)

Data set [2] deals with SU DHL-1 (Human large cell lymphoma). Nature of the data set: MTT assay, IC50 in tumor cell lines. In kind it is cell-based. The note with it: SU DHL-1, 72 hr. The method, then:
(§1) The effect of Astarabine® on different cell lines was evaluated. Briefly, various cell lines were obtained from ATCC or ECACC. Hematological cells were grown in RPMI medium containing 10-20% FBS and 1% glutamine. Solid tumor cells were grown in DMEM medium containing 10-20% FBS and 1% glutamine. Cells were seeded into 96-well plates, 50,000 cells/ml, 0.2 ml per well. Test substances were diluted in saline or PBS and added in final concentrations of 0.1 nM to 10 μM, in a volume of 20 μl. The study was conducted in triplicates, PBS was used as control. Plates were incubated for 72 hr at 37° C., 5% CO2. At the end of the exposure period, a MTT assay using the MTT reagent [3-(4,5-dimethylthiazol-2-yl)-2,5-diphenyltetrazolium bromide] was performed. MTT was added to each well at a concentration of 5 mg/ml in a volume of 0.02 ml. Plates were incubated at 37° C. for 3 h. The plates were centrifuged at 3500 rpm for 5 minutes and the supernatant was aspired. The pellets which contained MTT crystals were each dissolved in 0.2 ml DMSO. Absorbance was determined using ELISA reader at a wavelength of 570 nm.

The subject of data set [3] is HepG2 (Human hepatocellular carcinoma). The experiment in a line: MTT assay, IC50 in tumor cell lines. Format: cell-based. The note with it: HepG2, 72 hr. The method, then:
as §1

In data set [4] the test system is HL-60 (Human promyelocytic leukemia). The experiment in a line: MTT assay, IC50 in tumor cell lines. Format: cell-based. The following applies: HL-60, 72 hr. How it is done: as §1
Data set [5] has as its system RS 4:11 (Human acute lymphoblastic leukemia). Nature of the data set: MTT assay, IC50 in tumor cell lines. In kind it is cell-based. The following applies: RS4-11, RS 4:11, 72 hr. The method, then: as §1
The test system of data set [6] is SU DHL-5 (Human B-cell non Hodgkin's lymphoma). Nature of the data set: MTT assay, IC50 in tumor cell lines. Format: cell-based. The note with it: SU DHL-5, 72 hr. How it is done:
as §1

Data set [7] deals with THP-1 (Human monocytic leukemia). The experiment in a line: MTT assay, IC50 in tumor cell lines. Format: cell-based. The note with it: THP-1, 72 hr. The method, then:
as §1

The test system of data set [8] is K562 (Human chronic myelogenous leukemia). Nature of the data set: MTT assay, IC50 in tumor cell lines. Format: cell-based. The note with it: K562, 72 hr. How it is done:
as §1

The subject of data set [9] is Kasumi-1 (Human acute myeloblastic leukemia). The experiment in a line: MTT assay, IC50 in tumor cell lines. Format: cell-based. The following applies: Kasumi-1, 72 hr. The method, then: as §1
The subject of data set [10] is P388.D1 (Mouse lymphoid macrophage). The experiment in a line: MTT assay, IC50 in tumor cell lines. Format: cell-based. The note with it: P388D1, P388.D1, 72 hr. The method, then:
as §1

In data set [11] the test system is CCRF-CEM (Human acute lymphoblastic leukemia T lympoblastoid line). Nature of the data set: MTT assay, IC50 in tumor cell lines. In kind it is cell-based. The following applies: 72 hr. How it is done:
as §1

In data set [12] the test system is L1210 (Mouse DBA/2 lymphocytic leukemia). The experiment in a line: MTT assay, IC50 in tumor cell lines. In kind it is cell-based. The note with it: L1210, 72 hr. How it is done: as §1
For data set [13], the system named is MEG 01 (Human chronic myelogenous leukemia). Nature of the data set: MTT assay, IC50 in tumor cell lines. In kind it is cell-based. The note with it: MEG 01, 72 hr. How it is done: as §1
Data set [14] concerns NCIH727 (Human lung non small cell carcinoma). Nature of the data set: MTT assay, IC50 in tumor cell lines. In kind it is cell-based. The following applies: NCI-H727, NCIH727, 72 hr. The method, then:
as §1

Data set [15] concerns Molt-4 (Human acute lymphoblastic leukemia). The experiment in a line: MTT assay, IC50 in tumor cell lines. Format: cell-based. The following applies: Molt-4, 72 hr. How it is done:
as §1

For data set [16], the system named is A2780 (Human ovarian carcinoma). Nature of the data set: MTT assay, IC50 in tumor cell lines. In kind it is cell-based. The following applies: A2780, 72 hr. The method, then:
as §1

The test system of data set [17] is CCRF-SB (Human acute lymphoblastic leukemia). Nature of the data set: MTT assay, IC50 in tumor cell lines. In kind it is cell-based. The note with it: 72 hr. The method, then: as §1
The nature of data set [18]: Maximal tolerated dose, repeated dose IP (7 days) in mice. The note with it: for MTD at 7 days: TRC, mouse, in vivo. Format: in vivo. The text has this: All mice were inspected daily during drug administration and recovery period. Clinical evaluation included mobility observations, food and water consumption. […] Hematology and biochemical blood tests were shown normal at the end of the experiment.

Data set [19] has as its system CCRF-CEM cells. The experiment in a line: Human leukemia hollow fiber model transplanted in nude mice (CCRF-CEM). Format: in vivo. The note with it: 7 consecutive days. The method, then:
Next, the efficacy of Astarabine® in vivo was studied on a human leukemia (Molt-4 and CCRF-CEM cells) hollow fiber model transplanted in nude mice. Astarabine® was injected at doses of 6.25 mg/mouse/day and 25 mg/mouse/day intraperitoneally (IP), daily, for 7 consecutive days; cytarabine was injected at a dose of 1.5 mg/mouse/day. Leukemia cell growth was measured using the MTT assay as described in Example 1 herein above.

Regarding `N[C@@H](CC(=O)Nc1ccn([C@@H]2O[C@H](CO)[C@@H](O)[C@@H]2O)c(=O)n1)C(=O)O` [Astarabine®], the concentration for half-maximal inhibition (IC50) in data set [1] was 33400 to 144000 nM; in data set [2] it was 314 to 335 nM; in [3], 7000 to 7500 nM; in [4], 256 to 276 nM; in [5], 27.1 nM; in data set [6], 196 nM. For the same compound, the IC50 was 7100 to 52000 nM in data set [7]; 194 to 516 nM in data set [8]; 7600 nM in data set [9]; 1900 to 2600 nM in data set [10]; 23.3 to 40.8 nM in data set [11]; 39.4 to 116 nM in data set [12]. For the same compound, the IC50 in data set [13] is 1700 nM; in data set [14], 1300 to 2800 nM; in [15] it was 4 to 24 nM; in [16], 457 nM; in data set [17], 11000 to 21400 nM. Besides, the Gross necropsy result in [18] (IP 7 days, 156 to 781 mg/kg/day) is listed as “no abnormal findings”. The “Hematology and biochemical blood tests” value in [18] (IP 7 days, 156 to 781 mg/kg/day, end of experiment) is reported as “normal”. Further, the MTD at 7 days in data set [18] (781 mg/kg/day IP for 7 days, read-out: Accumulative dose at MTD) was determined as 5470 mg/kg; in data set [18] (IP for 7 days, read-out: MTD (maximal tolerated dose)), 781 mg/kg/day. Moreover, the “Inhibition of growth of CCRF-CEM cells” value in data set [19] (6.25 mg/mouse/day IP) was determined as 71.9%; in [19] (25 mg/mouse/day IP), 72.0%.

The record behind these values is patent US12064445B2, “Cytarabine conjugates for cancer therapy” (Biosight Ltd., priority 2015, dated 2024).
